Results published in US20250367164A1, “THERAPEUTIC COMPOSITIONS FOR SKIN DISORDERS AND WOUND REPAIR” (UNIVERSITY OF MIAMI, priority 2022, published 2025).

How the values were obtained:
[1] = tested on: MRSA USA300; experiment: In vitro MRSA internalization in human keratinocytes; format: cell-based, MRSA USA300 in primary human keratinocytes
Description: For all internalization assays, MRSA USA300 strain was used. In vitro pathogen internalization: Primary human keratinocytes were seeded at 5×10^4 in triplicates and allowed to adhere overnight. The following day, they were inoculated with MRSA USA300 conjugated to a pH sensitive dye (pHrodo iFL STP ester, Life Technologies) at 1×10^6 CFU/ml for 1 hr in presence or absence of 1 mM MβCD, prior to washing with PBS. They were then either subject to live cell imaging or washed with lysostaphin for 1 hr (in order to kill any extracellular bacteria), lysed in hypotonic solution and seeded onto blood agar plates in serial dilutions in order to determine relative CFU counts. Ex vivo human skin: Human skin specimens from reduction surgery were obtained and wounded. Briefly, using a biopsy punch 4-mm acute wounds were made in the skin specimens (n=4 per treatment), and either pre-treated in presence or absence of 2 mM MβCD, followed by inoculation with 10 ul of MRSA 10^8 CFU/ml for 24 hrs. Skin was then washed with PBS, incubated with lysostaphin for Ihr in order to kill any extracellular bacteria, lysed with hypotonic solution and subsequent lysate seeded onto blood agar plates in serial dilutions. […]

[2] = tested on: VEGF; experiment: VEGF ELISA on snap frozen mouse wounds; format: in vivo, mice; settings: same mouse wounds, FIG. 14
Description: Amount of VEGF in snap frozen mouse wounds was analyzed using VEGF ELISA as per manufacturer's instructions. Up to 8 wounds were utilized per condition in duplicates and amount of VEGF quantified using internal standards provided by the kit.
ELISA was used to measure levels of VEGF from the same wounds in order to validate that the upregulation at the mRNA level coincides with increased VEGF protein level.

[3] = tested on: 5-mm round excisional dorsal wounds of db/db mice; experiment: Splinted excisional wound healing in db/db mice treated with hydrogel scaffolds; format: in vivo; settings: FIG. 10
Description: All animal care and use procedures were approved by the University of Miami Institutional Animal Care and Use Committee (IACUC #19-097). Under anesthesia, 12×7-weeks of age female db/db mice had their dorsal skin hair clipped, depilated and their fasting blood glucose level measured for 3 consecutive days, to validate hyperglycemia (>300 mg/dL was deemed as hyperglycemic). Subsequently, mice's dorsal skin was cleaned with antiseptic solution and four 5-mm round excisional wounds were made, two on each side of the dorsal midline (n=8 wounds per treatment). Dorsal wounds were treated with cylindrical hydrogel scaffolds of 8 mm×2 mm for either 7 or 16 days. Same hydrogel scaffold fabrication procedure was employed (as previously described) and with the same treatment and control formulations as the ex vivo human skin wound models. Scaffolds were fixed on top of the wounds with 14-mm square splints containing a 10 mm circular central opening. Cyanoacrylate glue was used to secure the splints just long enough for 4 non-continuous sutures to adhere the […] to the wound and prevent wound contraction. […] Diabetic mice wounds' closure rate was assessed by histologically analyzing re-epithelialization and epidermal thickness through H&E staining with an Olympus VS120 microscope (Olympus, Tokyo, JPN) and Image J software (NIH, MD, USA). […]

How did the “CFU counts of internalized bacteria” value ([1]; Cav1 overexpressing and Cav1 knockout human keratinocytes, cell lysate on blood agar plates) turn out when methyl-β-cyclodextrin [MβCD] was run?
Its value is “lowered the CFU counts”.

And the “intracellular MRSA” value ([1]; treatment administered after MRSA infection, keratinocytes)?
Its value is “expelled a majority of intracellular MRSA”.

Which “levels of VEGF” value [2] does the source give for hydroxypropyl-β-cyclodextrin [HβCD] here?
Its value is “increased levels of VEGF”.

With platelet derived growth factor [PDGF] as the substance, how does the “wound closure at the conclusion of the experiment” value [3] read?
The value was “not fully closed”.
